Reference: patent US7250521B2, “Method for production of Δ1-pyrrolines” (Bayer CropScience Aktiengesellschaft, priority 2001, dated 2007)

Assay: logP determination by HPLC on reverse-phase column (C 18), EEC directive 79/831 Annex V.A8
Format: physicochemical
Description: In the acidic range, the determination is carried out at pH 2.3 using the mobile phases 0.1% aqueous phosphoric acid and acetonitrile; linear gradient from 10% acetonitrile to 90% acetonitrile.
In the neutral range, the determination is carried out at pH 7.5 using the mobile phases 0.01 molar aqueous phosphate buffer solution and acetonitrile; linear gradient from 10% acetonitrile to 90% acetonitrile.

[1] = reverse-phase HPLC column (C 18), pH 2.3, acidic range, pH 2.3; 0.1% aqueous phosphoric acid/acetonitrile gradient; 43° C.; values marked a)
[2] = reverse-phase HPLC column (C 18), pH 7.5, neutral range, pH 7.5; 0.01 molar aqueous phosphate buffer/acetonitrile gradient; 43° C.; values marked b)

SMILES | chromatographic logP [1] | chromatographic logP [2] | logP (acidic range, pH 2.3; 0.1% aqueous phosphoric acid/acetonitrile gradient; 43° C.; values marked a))
O=C1CCC(c2ccc(-c3ccc(SC(F)(F)F)cc3)cc2)N1 (single isomer, unassigned; isomer 5) [V-2 para isomer, 5-{4′-[(trifluoromethyl)thio]-1,1′-biphenyl-4-yl}-2-pyrrolidinone] | 3.24 |  | 
FC(F)(F)Oc1ccc(C2CCC(c3ccccc3Br)=N2)cc1 (stereo not shown) [Example 1, 5-(2-bromophenyl)-2-[4-(trifluoro-methoxy)phenyl]-3,4-dihydro-2H-pyrrole] | 3.61 |  | 
FC(F)(F)c1ccccc1C1=NC(c2ccc(Br)cc2)CC1 (stereo not shown) [Example 2] | 3.9 |  | 
FC(F)(F)Oc1ccc(-c2ccc(C3CCC(c4ccccc4C(F)(F)F)=N3)cc2)cc1 (stereo not shown) [Example 3] | 5.11 |  | 
Fc1ccccc1C1=NC(c2ccc(-c3ccc(OC(F)(F)F)cc3)cc2)CC1 (stereo not shown) [Example 4] | 3.09 | 5.45 | 
COc1ccccc1C1=NC(c2ccc(-c3ccc(OC(F)(F)F)cc3)cc2)CC1 (stereo not shown) [Example 5] | 2.55 | 5.23 | 
Cc1cccc(C)c1C1=NC(c2ccc(-c3ccc(OC(F)(F)F)cc3)cc2)CC1 (stereo not shown) [Example 6] | 5.7 |  | 
FC(F)(F)Oc1ccc(-c2ccc(C3CCC(c4ccccc4OC(F)(F)F)=N3)cc2)cc1 (stereo not shown) [Example 7] | 4.83 |  | 
FC(F)(F)Oc1ccc(-c2ccc(C3CCC(c4ccc(Cl)cc4Cl)=N3)cc2)cc1 (stereo not shown) [Example 8] | 5.69 |  | 
Fc1cccc(F)c1C1=NC(c2ccc(OCC(F)(F)F)cc2)CC1 (stereo not shown) [Example 9] | 2.41 |  | 
C=CCOc1ccc(C2CCC(c3ccccc3F)=N2)cc1 (stereo not shown) [Example 10] | 1.63 |  | 
Clc1ccccc1C1=NC(c2cccc(Br)c2)CC1 (stereo not shown) [Example 15] | 2.99 |  | 
FC(F)(F)Sc1ccc(-c2ccc(C3CCC(c4ccccc4Cl)=N3)cc2)cc1 (stereo not shown) [Example 16] | 4.67 | 5.94 | 
Fc1ccccc1C1=NC(c2ccc(-c3ccc(SC(F)(F)F)cc3)cc2)CC1 (stereo not shown) [Example 17] | 3.45 | 5.84 | 
Cc1ccccc1C1=NC(c2ccc(-c3ccc(SC(F)(F)F)cc3)cc2)CC1 (stereo not shown) [Example 18] | 3.25 | 6.1 | 
FC(F)(F)Sc1ccc(-c2ccc(C3CCC(c4ccc(Cl)cc4Cl)=N3)cc2)cc1 (stereo not shown) [Example 19] | 6.19 |  | 
CC(C)(C)c1ccc(C2CCC(c3ccccc3Cl)=N2)cc1 (stereo not shown) [Example 20] | 3.05 |  | 
CC(C)c1ccc(C2CCC(c3ccccc3Cl)=N2)cc1 (stereo not shown) [Example 21] | 2.74 |  | 
CC(C)c1ccc(C2CCC(c3ccccc3F)=N2)cc1 (stereo not shown) [Example 22] | 2.09 |  | 
CC(C)c1ccc(C2CCC(c3ccccc3Br)=N2)cc1 (stereo not shown) [Example 23] | 3.06 |  | 
CC(C)(C)c1ccc(C2CCC(c3ccccc3F)=N2)cc1 (stereo not shown) [Example 24] | 2.33 | 5.06 | 
Cc1ccccc1C1=NC(c2ccc(C(C)C)cc2)CC1 (stereo not shown) [Example 25] | 2.11 | 5.01 | 
CC(C)(C)c1ccc(C2CCC(c3ccccc3Br)=N2)cc1 (stereo not shown) [Example 26] | 3.36 | 5.21 | 
Cc1ccccc1C1=NC(c2ccc(C(C)(C)C)cc2)CC1 (stereo not shown) [Example 27] | 2.31 |  | 
Cc1cc(Cl)ccc1C1CCC(c2ccccc2Cl)=N1 (stereo not shown) [Example 28] | 3.18 | 4.62 | 

SMILES | chromatographic logP [1] | chromatographic logP [2] | logP (acidic range, pH 2.3; 0.1% aqueous phosphoric acid/acetonitrile gradient; 43° C.; values marked a))
Cc1cc(Cl)ccc1C1CCC(c2ccccc2Br)=N1 (stereo not shown) [Example 29] | 3.55 | 4.63 | 
Cc1ccccc1C1=NC(c2ccc(Cl)cc2C)CC1 (stereo not shown) [Example 30] | 2.06 | 4.79 | 
Cc1ccccc1C1=NC(c2ccc(F)cc2)CC1 (stereo not shown) [Example 31] | 1.41 |  | 
Fc1ccc(C2CCC(c3ccccc3)=N2)cc1 (stereo not shown) [Example 32] | 1.12 | 3.34 | 
Fc1ccc(C2CCC(c3cccc(Cl)c3)=N2)cc1 (stereo not shown) [Example 33] | 1.98 | 4.05 | 
Fc1ccc(C2CCC(c3ccc(Cl)cc3)=N2)cc1 (stereo not shown) [Example 34] | 1.63 | 3.99 | 
CC(C)Sc1ccc(C2CCC(c3c(F)cccc3F)=N2)cc1 (stereo not shown) [Example 36] | 2.18 |  | 
Fc1ccc(C2CCC(c3c(Cl)cccc3Cl)=N2)cc1 (stereo not shown) [Example 37] | 3.78 | 3.95 | 
Cc1ccc(C2CCC(c3ccccc3Cl)=N2)c(Cl)c1 (stereo not shown) [Example 38] | 3.52 | 4.86 | 
Cc1cc(Cl)ccc1C1CCC(c2ccccc2F)=N1 (stereo not shown) [Example 39] | 2.09 | 4.51 | 
COc1ccc(C2CCC(c3ccccc3Cl)=N2)cc1F (stereo not shown) [Example 40] | 1.97 | 3.52 | 
FC(F)(F)Oc1ccc(C2CCC(c3ccccc3Cl)=N2)cc1 (stereo not shown) [Example 41] |  | 4.5 | 
COc1ccc(C2CCC(c3ccccc3Br)=N2)cc1 (stereo not shown) [Example 42] | 1.79 | 3.5 | 
COc1ccc(C2CCC(c3ccccc3Br)=N2)cc1F (stereo not shown) [Example 43] | 2.22 |  | 
Clc1ccc(C2=NC(c3ccccc3)CC2)cc1Cl (stereo not shown) [Example 44] | 2.68 | 4.59 | 
Clc1ccc(C2CCC(c3ccccc3Cl)=N2)cc1Cl (stereo not shown) [Example 45] | 3.83 | 4.75 | 
Clc1ccc(C2CCC(c3ccccc3Cl)=N2)c(Cl)c1 (stereo not shown) [Example 46] | 4.66 | 5.2 | 
Cc1ccc(C2CCC(c3ccccc3Br)=N2)c(Cl)c1 (stereo not shown) [Example 47] | 3.98 | 4.88 | 
Clc1cccc(C2=NC(c3ccccc3)CC2)c1 (stereo not shown) [Example 48] | 1.73 | 3.97 | 
Fc1ccc(C2CCC(c3ccccc3Cl)=N2)cc1F (stereo not shown) [Example 49] | 2.67 | 3.86 | 
Cc1ccc(C2CCC(c3ccccc3F)=N2)c(Cl)c1 (stereo not shown) [Example 50] | 2.39 | 4.74 | 
Fc1ccc(C2CCC(c3cc(Cl)ccc3Cl)=N2)cc1 (stereo not shown) [Example 51] | 3.79 | 4.36 | 
CCOc1cc(C(C)(C)C)ccc1C1CCC(c2ccccc2Cl)=N1 (stereo not shown) [Example 52] | 3.01 | 5.78 | 
FC(F)(F)Oc1ccc(C2CCC(c3ccccc3Br)=N2)cc1 (stereo not shown) [Example 53] |  |  | 3.63^a)
Cc1ccc(C2CCC(c3ccccc3Cl)=N2)cc1Cl (stereo not shown) [Example 54] | 2.98 | 4.67 | 

SMILES | chromatographic logP [1] | chromatographic logP [2] | logP (acidic range, pH 2.3; 0.1% aqueous phosphoric acid/acetonitrile gradient; 43° C.; values marked a))
CSc1ccc(C2CCC(c3ccccc3Cl)=N2)cc1 (stereo not shown) [Example 55] | 2.19 | 4 | 
Fc1ccc(C2CCC(c3ccccc3Br)=N2)cc1F (stereo not shown) [Example 56] | 3.01 | 3.89 | 
CCOc1cc(C(C)(C)C)ccc1C1CCC(c2ccccc2Br)=N1 (stereo not shown) [Example 57] | 3.31 | 5.8 | 
CSc1ccc(C2CCC(c3ccccc3Br)=N2)cc1 (stereo not shown) [Example 58] | 2.5 | 4.03 | 
Fc1cccc(F)c1C1=NC(c2ccc(SCc3ccc(Cl)cc3)cc2)CC1 (stereo not shown) [Example 59] | 2.88 |  | 
Fc1ccc(C2CCC(c3ccccc3Cl)=N2)c(F)c1 (stereo not shown) [Example 60] | 2.9 | 3.96 | 
Cc1cc(Cl)ccc1C1CCC(c2cc(Cl)ccc2Cl)=N1 (stereo not shown) [Example 61] | 5.03 | 5.33 | 
Cc1ccc(C2CCC(c3ccccc3Br)=N2)cc1Cl (stereo not shown) [Example 62] | 3.36 | 4.69 | 
Fc1ccc(C2CCC(c3ccccc3F)=N2)cc1F (stereo not shown) [Example 63] | 1.74 | 3.74 | 
Fc1ccc(C2CCC(c3ccc(C(F)(F)F)cc3)=N2)cc1 (stereo not shown) [Example 64] | 2.73 | 4.2 | 
Fc1ccc(C2CCC(c3ccc(OC(F)(F)F)cc3)=N2)cc1 (stereo not shown) [Example 65] | 2.23 | 4.31 | 
FC(F)(F)Oc1ccc(C2=NC(c3ccccc3)CC2)cc1 (stereo not shown) [Example 66] | 2.02 | 4.26 | 
Clc1ccccc1C1=NC(c2ccc(C3CCCCC3)cc2)CC1 (stereo not shown) [Example 67] |  | 6.04 | 
Fc1ccccc1C1=NC(c2ccc(OC(F)(F)F)cc2)CC1 (stereo not shown) [Example 68] |  | 4.41 | 
Clc1cccc(C2=NC(c3ccccc3)CC2)c1Cl (stereo not shown) [Example 69] |  | 4.07 | 
Clc1ccccc1C1=NC(c2ccc(CCc3ccccc3)cc2)CC1 (stereo not shown) [Example 70] | 3.47 | 5.33 | 
Cc1ccc(C2CCC(c3ccccc3Cl)=N2)c(C)c1 (stereo not shown) [Example 71] | 2.82 | 4.45 | 
Brc1ccc(C2=NC(c3ccccc3)CC2)cc1 (stereo not shown) [Example 72] | 1.59 | 4.06 | 
Fc1cccc(F)c1C1=NC(c2ccc(OC(F)(F)F)cc2)CC1 (stereo not shown) [Example 73] |  | 4.13 | 
Cc1ccc(C2CCC(c3ccccc3Cl)=N2)cc1 (stereo not shown) [Example 74] | 1.96 | 4.04 | 
CC(=O)c1ccc(C2CCC(c3ccccc3Cl)=N2)cc1 (stereo not shown) [Example 75] | 1.88 | 3.06 | 
Fc1ccccc1C1=NC(c2ccccc2)CC1 (stereo not shown) [Example 76] | 1.16 | 3.45 | 
Brc1ccccc1C1=NC(c2ccc(C3CCCCC3)cc2)CC1 (stereo not shown) [Example 77] | 4.23 | 6.03 | 
Fc1cccc(F)c1C1=NC(c2ccc(C3CCCCC3)cc2)CC1 (stereo not shown) [Example 78] | 3.84 | 5.56 | 
Fc1ccccc1C1=NC(c2ccc(C3CCCCC3)cc2)CC1 (stereo not shown) [Example 79] | 2.86 | 5.95 | 
